Laboratory results published in patent US20090263780A1, “Organ preservation fluid” (priority 2008, published 2009).

Tested on: Cortical neurons cultures
Experiment: Neuron viability (MTT reduction test) after anoxic insult
Assay type: cell-based, Sprague-Dawley rats
Method: Neuron culture: Cortical neurons cultures were prepared from fetal Sprague-Dawley rats at 17-day gestation. Timed pregnant Sprague-Dawley rats were euthanized with isoflorane. After dissection of the cortical region of the fetal brain, cortical neurons were dispersed by trituration, centrifuged at 250 g for 5 minutes at 4° C., and suspended in a neurobasal medium supplemented with 25 μmol/L glutamic acid, 0.5 mmol/L glutamine, 1% antibiotic-antimycotic solution, and 2% B27 supplement. Cells were plated at 5×10^5 cells/ml on poly-L-lysine-coated 24-well plates. Cytosine (10 μmol/) was added at day 3. Neuron cultures were fed every 4 days with replacement of half of neurobasal medium containing 0.5 mmol/L glutamine, 1% antibiotic-antimycotic solution, and 2% B27 supplement. The culture plates were incubated at 37° C. in a humid atmosphere with 5% CO2. […]
Validation of neurons' survival: Neuronal viability was quantitatively evaluated by a methyl thiazole tetrazolium (MTT) reduction test. This quantifies the formation of a dark blue formazan product formed by the reduction of the tetrazolium ring of MTT by the mitochondrial succinate dehydrogenase in living cells. […] Cell viability corresponded to the value of the optical density read at 570 nm with background subtraction at 630 nm. Results were expressed as percent of the optical density measured in normal control cells.

With “B: 2 wt % albumin (native bovine serum albumin, molecular weight 68 kDa, pI 4.8) + ACSF” the “Neuronal viability after anoxia, result in words” value (ACSF supplemented with the polypeptide, anoxic environment, comparison) was “significantly increased neuronal viability” and the “Neuron's viability (Percentage, Mean ± SD)” value (anoxia 60 mins at 37° C., culture media replaced by 2 wt % test polypeptide + ACSF, MTT 24 hours after anoxia, percent of optical density in normal control cells) was 96 ± 3.9 Percentage.
